System: K24384-001-R-PDC complex spheroids, viability
Experiment: Anticancer human tumor K24384-001-R-PDC patient-derived pancreatic adenocarcinoma cell line growth inhibition [GQUAD]
Details: for IC50: curve of first compound; for viability, T/C: stronger effect = lower value
Outline: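 Viability of tumor cells grown as complex spheroids with endothelial and stromal cells, exposed to drug combinations. Top concentration at or near clinical Cmax (else 10 microM), diluted in half-log increments.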

[1] = second compound 0.0316 µM, first compound 0.0316 µM
[2] = second compound 0.0316 µM, first compound 0.1 µM
[3] = second compound 0.0316 µM, first compound 0.316 µM
[4] = second compound 0.0316 µM, first compound 1 µM
[5] = second compound 0.0316 µM, first compound 3.16 µM
[6] = second compound 0.0316 µM, first compound 10 µM
[7] = second compound 0.1 µM, first compound 0.0316 µM
[8] = second compound 0.1 µM, first compound 0.1 µM
[9] = second compound 0.1 µM, first compound 0.316 µM
[10] = second compound 0.1 µM, first compound 1 µM
[11] = second compound 0.1 µM, first compound 3.16 µM
[12] = second compound 0.1 µM, first compound 10 µM
[13] = second compound 0.316 µM, first compound 0.0316 µM
[14] = second compound 0.316 µM, first compound 0.1 µM
[15] = second compound 0.316 µM, first compound 0.316 µM
[16] = second compound 0.316 µM, first compound 1 µM
[17] = second compound 0.316 µM, first compound 3.16 µM
[18] = second compound 0.316 µM, first compound 10 µM
[19] = second compound 1 µM, first compound 0.0316 µM
[20] = second compound 1 µM, first compound 0.1 µM
[21] = second compound 1 µM, first compound 0.316 µM
[22] = second compound 1 µM, first compound 1 µM
[23] = second compound 1 µM, first compound 3.16 µM
[24] = second compound 1 µM, first compound 10 µM
[25] = second compound 3.16 µM, first compound 0.0316 µM
[26] = second compound 3.16 µM, first compound 0.1 µM
[27] = second compound 3.16 µM, first compound 0.316 µM
[28] = second compound 3.16 µM, first compound 1 µM
[29] = second compound 3.16 µM, first compound 3.16 µM
[30] = second compound 3.16 µM, first compound 10 µM
[31] = second compound 10 µM, first compound 0.0316 µM
[32] = second compound 10 µM, first compound 0.1 µM
[33] = second compound 10 µM, first compound 0.316 µM
[34] = second compound 10 µM, first compound 1 µM
[35] = second compound 10 µM, first compound 3.16 µM
[36] = second compound 10 µM, first compound 10 µM
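Further: spheroids exposed to compounds for seven days.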

CC1COCCN1c1cc(-c2ccnn2C)c2ccnc(-c3ccn[nH]3)c2n1 (stereo not drawn) + Cc1[nH]c2ccc(F)cc2c1-c1nc2c3cccnc3c3ncccc3c2[nH]1
IC50 (second compound 0.0316 µM): 215 nM
IC50 (second compound 0.1 µM): 242 nM
IC50 (second compound 0.316 µM): 219 nM
IC50 (second compound 1 µM): 178 nM
IC50 (second compound 3.16 µM): 57.6 nM
IC50 (second compound 10 µM): 51.1 nM
viability, T/C [1]: 84.6%
viability, T/C [2]: 63.7%
viability, T/C [3]: 45.1%
viability, T/C [4]: 28.7%
viability, T/C [5]: 44.8%
viability, T/C [6]: 31.8%
viability, T/C [7]: 68.7%
viability, T/C [8]: 68.9%
viability, T/C [9]: 44.3%
viability, T/C [10]: 31.1%
viability, T/C [11]: 45%
viability, T/C [12]: 36.5%
viability, T/C [13]: 71.4%
viability, T/C [14]: 76.5%
viability, T/C [15]: 38.7%
viability, T/C [16]: 33.5%
viability, T/C [17]: 39.8%
viability, T/C [18]: 38.2%
viability, T/C [19]: 62.1%
viability, T/C [20]: 64.6%
viability, T/C [21]: 29.5%
viability, T/C [22]: 41.5%
viability, T/C [23]: 39.6%
viability, T/C [24]: 36.3%
viability, T/C [25]: 55.5%
viability, T/C [26]: 48.1%
viability, T/C [27]: 31.4%
viability, T/C [28]: 41%
viability, T/C [29]: 29.3%
viability, T/C [30]: 35.7%
viability, T/C [31]: 57.4%
viability, T/C [32]: 39.9%
viability, T/C [33]: 30.3%
viability, T/C [34]: 31.5%
viability, T/C [35]: 24.1%
viability, T/C [36]: 28.9%

CC1COCCN1c1cc(C2(O)CC3CCC(C2)O3)c2cnn(-c3ccn[nH]3)c2n1 (stereo not drawn) + Cc1[nH]c2ccc(F)cc2c1-c1nc2c3cccnc3c3ncccc3c2[nH]1
IC50 (second compound 0.0316 µM): 230 nM
IC50 (second compound 0.1 µM): 209 nM
IC50 (second compound 0.316 µM): 179 nM
IC50 (second compound 1 µM): 182 nM
IC50 (second compound 3.16 µM): 139 nM
IC50 (second compound 10 µM): 61.1 nM
viability, T/C [1]: 75.8%
viability, T/C [2]: 57.4%
viability, T/C [3]: 51.6%
viability, T/C [4]: 27%
viability, T/C [5]: 24.5%
viability, T/C [6]: 19.8%
viability, T/C [7]: 65.6%
viability, T/C [8]: 82.1%
viability, T/C [9]: 36.4%
viability, T/C [10]: 30.2%
viability, T/C [11]: 33.5%
viability, T/C [12]: 22.7%
viability, T/C [13]: 69%
viability, T/C [14]: 54.9%
viability, T/C [15]: 44.2%
viability, T/C [16]: 32.4%
viability, T/C [17]: 32.9%
viability, T/C [18]: 19.1%
viability, T/C [19]: 77.3%
viability, T/C [20]: 59.7%
viability, T/C [21]: 37.2%
viability, T/C [22]: 35.2%
viability, T/C [23]: 32.4%
viability, T/C [24]: 18.1%
viability, T/C [25]: 53.8%
viability, T/C [26]: 63.4%
viability, T/C [27]: 28.4%
viability, T/C [28]: 30.5%
viability, T/C [29]: 28.7%
viability, T/C [30]: 13.2%
viability, T/C [31]: 55.3%
viability, T/C [32]: 50.9%
viability, T/C [33]: 26.2%
viability, T/C [34]: 28.4%
viability, T/C [35]: 22.9%
viability, T/C [36]: 9.97%

CC1COCCN1c1cc(C2(S(C)(=N)=O)CC2)nc(-c2ccnc3[nH]ccc23)n1 (stereo not drawn) + Cc1[nH]c2ccc(F)cc2c1-c1nc2c3cccnc3c3ncccc3c2[nH]1
IC50 (second compound 0.0316 µM): 1610 nM
IC50 (second compound 0.1 µM): 1710 nM
IC50 (second compound 0.316 µM): 1500 nM
IC50 (second compound 1 µM): 1990 nM
IC50 (second compound 3.16 µM): 2040 nM
IC50 (second compound 10 µM): 1250 nM
viability, T/C [1]: 82.5%
viability, T/C [2]: 94.6%
viability, T/C [3]: 112%
viability, T/C [4]: 64.2%
viability, T/C [5]: 37.2%
viability, T/C [6]: 22.6%
viability, T/C [7]: 87.1%
viability, T/C [8]: 95.7%
viability, T/C [9]: 107%
viability, T/C [10]: 66.6%
viability, T/C [11]: 34.6%
viability, T/C [12]: 27.5%
viability, T/C [13]: 81.6%
viability, T/C [14]: 85.5%
viability, T/C [15]: 101%
viability, T/C [16]: 58.8%
viability, T/C [17]: 38.5%
viability, T/C [18]: 29.2%
viability, T/C [19]: 87.5%
viability, T/C [20]: 84.1%
viability, T/C [21]: 87.1%
viability, T/C [22]: 63.6%
viability, T/C [23]: 41.5%
viability, T/C [24]: 31.6%
viability, T/C [25]: 71.6%
viability, T/C [26]: 72.6%
viability, T/C [27]: 72.9%
viability, T/C [28]: 61%
viability, T/C [29]: 43%
viability, T/C [30]: 26%
viability, T/C [31]: 56.5%
viability, T/C [32]: 64.4%
viability, T/C [33]: 58.5%
viability, T/C [34]: 54.3%
viability, T/C [35]: 32.5%
viability, T/C [36]: 16.5%

COc1ccc([C@@H](O)c2cc(-c3ncnc4cc(N5CCOCC5)ccc34)c(F)cc2Cl)nn1 + Cc1[nH]c2ccc(F)cc2c1-c1nc2c3cccnc3c3ncccc3c2[nH]1
IC50 (second compound 0.0316 µM): 2990 nM
IC50 (second compound 0.1 µM): 2480 nM
IC50 (second compound 0.316 µM): 4280 nM
IC50 (second compound 1 µM): 3380 nM
IC50 (second compound 3.16 µM): 2100 nM
IC50 (second compound 10 µM): 1690 nM
viability, T/C [1]: 100%
viability, T/C [2]: 89.6%
viability, T/C [3]: 68.3%
viability, T/C [4]: 64.6%
viability, T/C [5]: 49.1%
viability, T/C [6]: 38.6%
viability, T/C [7]: 79.7%
viability, T/C [8]: 95.4%
viability, T/C [9]: 92.7%
viability, T/C [10]: 73%
viability, T/C [11]: 44.5%
viability, T/C [12]: 31.9%
viability, T/C [13]: 101%
viability, T/C [14]: 115%
viability, T/C [15]: 99.4%
viability, T/C [16]: 66.8%
viability, T/C [17]: 65.1%
viability, T/C [18]: 28.4%
viability, T/C [19]: 81.7%
viability, T/C [20]: 99.5%
viability, T/C [21]: 83.9%
viability, T/C [22]: 67.1%
viability, T/C [23]: 54.1%
viability, T/C [24]: 30.3%
viability, T/C [25]: 87.9%
viability, T/C [26]: 76.8%
viability, T/C [27]: 58%
viability, T/C [28]: 73.5%
viability, T/C [29]: 41.7%
viability, T/C [30]: 19.3%
viability, T/C [31]: 48.7%
viability, T/C [32]: 85.9%
viability, T/C [33]: 58.9%
viability, T/C [34]: 66.3%
viability, T/C [35]: 32.3%
viability, T/C [36]: 15.8%

From PubChem BioAssay AID2060483 (Molecular Pharmacology Branch, DTP, NCI, 2025)
